Laboratory results as given in publication PMC10704857 (Journal of medicinal chemistry, 2021).

Assays:
[1] = biological target: RTA depurination of yeast ribosomes (Ricinus communis, UniProt P02879); assay type: biochemical
[2] = system: Stx2a holotoxin in Vero cells; assay type: cell-based
cisplatin toxicity = assay type: cell-based

How did the “fold improved IC50 relative to CC10501” value [1] turn out when `Cc1ccccc1-c1ccc(C(=O)O)s1` [RU-NT-70, 5-(o-Tolyl)thiophene-2-carboxylic Acid] was run?
Its value is 10 fold.

Which results are given for `Cc1cccc(C)c1-c1ccc(C(=O)O)s1` [RU-NT-93, 5-(2,6-Dimethylphenyl)thiophene-2-carboxylic Acid]?
inhibition of depurination by Stx2a [2]: did not protect; effect on toxicity of cisplatin (cisplatin toxicity): did not alter

What does the source list for `CCc1ccccc1-c1ccc(C(=O)O)s1` [RU-NT-102, 5-(2-Ethylphenyl)thiophene-2-carboxylic Acid]?
fold improved IC50 relative to CC10501 [1]: 12 fold; inhibition of depurination by Stx2a [2]: did not protect; effect on toxicity of cisplatin (cisplatin toxicity): did not alter

For `O=C(O)c1ccc(-c2cccc3c2OCC3)s1` [RU-NT-105, 5-(2,3-Dihydrobenzofuran-7-yl)thiophene-2-carboxylic Acid], which “protection of yeast ribosomes from depurination” value [1] is on record?
The value was “not active”.
